According to patent US7629317B2, “Control of growth and repair of gastro-intestinal tissues by gastrokines and inhibitors” (The University of Chicago, priority 2001, dated 2009):
“Also recorded” adds a separate entry of the source. Where two headings read alike, the source gives them in different places.

Tests used:
[1] = tested on: IEC-18 cells; assay: Growth of confluent cultures of IEC-18 cells (cell count); type: cell-based, rat; settings: for EC50: read-out: half-maximal concentration (K1/2) for growth stimulation
Method: Confluent cultures of IEC-18 cells were prepared. One day later, medium was aspirated and replaced with 5 ml of DMEM containing CS (0.5%) and insulin, without (control) or with mitogenic peptide 58-99 (8 μg/ml). Sister plates receiving 1 ml medium and different amounts of peptide 67-85 were incubated at 1 hr at 38° C. on a CO2 incubator, and then an additional 4 ml of medium was added to each dish. Peptide 58-99 was added to 2 of the 4-sister plates at each concentration of peptide 67-85, and the number of cells was counted. […] Stimulation of cell growth by mitogenic peptide 58-99 was completely abolished by preincubation of cells with 0.25 μg/ml of peptide 67-85. […] Values for the number of cells per culture are shown relative to multiplication of cells exposed to the vehicle during the same period.
Urea (6 M) was employed to release proteins from the insoluble fraction solubilize rhAMP-18 containing the His6-tag (SEQ ID NO: 16), and make it available to bind to the Ni^2+-charged resin from which it was subsequently eluted with a gradient of imidazole (0 to 200 mM). The amount of eluted rhAMP-18 was measured using the BCA assay, and the appearance of a single band at the predicted size of 19-20 kD was confirmed by SDS-PAGE followed by immunoblotting. To determine if eluted rhAMP-18 renatured to assume a structure that was mitogenic, aliquots of the eluate (following removal of urea and imidazole by dialysis) were added to cultures of IEC-18 cells and the number of cells was counted 4 days later. […] AMP peptide 77-97 refers to the mature protein; same as peptide 97-117 of human precursor protein: Table 1. These observations indicate that biologically active recombinant human AMP-18 that can be utilized in diverse clinical situations is available. The mitogenic potency of rhAMP-18 is in the nanomolar range which would be expected for a native gastric cell growth factor that participates in the maintenance and repair of the stomach in vivo.
(§1) To characterize the capacity of gastric and intestinal cells to respond to AMP-18, AGS gastric adenocarcinoma cells, HAE human gastric antrum mucosa primary cultures transformed with SV40 large T antigen, rat diploid small intestinal epithelial cells of the IEC-6 (FIG. 15) and IEC-18 lines, NCI N-87 gastric carcinoma cells, and SK-GT5 gastroesophageal adenocarcinoma cells were studied; human WI-38 fibroblasts and HeLa cells served as non-GI control cell lines. Mitogenesis was assayed by performing cell counts 3 to 4 days after exposing cells to the agent of interest, trypsinizing the culture to prepare single cells, and confirming this while counting them in a hemocytometer.

[2] = tested on: AGS cells; assay: Growth of gastric epithelial AGS cells (cell count four days later); type: cell-based, human; settings: peptide 77-97 8 μg/ml, EGF 50 ng/ml at saturating doses
Method: as §1

[3] = tested on: IEC-6 cells; assay: Growth of intestinal epithelial IEC-6 cells (cell count); type: cell-based, rat
Method: IEC-6 cells were grown in 60-mm dishes. […] Values are means±SE for 3 cultures.
as §1

[4] = tested on: HAE cells; assay: Growth of human antrum epithelial (HAE) cells (cell count 4 days later); type: cell-based; settings: peptide 77-97 8 μg/ml, EGF 50 ng/ml, 4 days
Method: (§2) To measure growth (left panel), HAE cells were plated in 60-mm dishes. Peptide 77-97 (8 μg/ml), or EGF (50 ng/ml), or both were added to the medium and the number of cells counted 4 days later. […] Values are means±SE for 3 cultures. To measure migration (right panel), cells were grown in 60-mm dishes to prepare a confluent monolayer. The medium was aspirated and replaced with fresh medium containing 0.01% calf serum (CS). The monolayer was mechanically wounded by scraping with a razor blade. Detached cells were removed by aspirating medium, and rinsing the remaining cells twice with fresh medium containing 0.01% CS. Fresh medium (5 ml) containing CS (0.01%) and insulin (100 U/L) was added to wounded cultures. Either peptide 77-97 (8 μg/ml), EGF (50 ng/ml), or both were added to duplicate cultures. Migration was assessed at 24, 48 and 72 hr after wounding by measuring the distance (in mm) that cells had migrated from the wound edge using a microscope eyepiece reticle (10-mm long; 0.1-mm markings). Migrating cells at 12 randomly chosen sites along a 0.25-mm stretch of the wound edge were measured at 40-fold magnification. Migration at 2 different sites was measured for each of 2 separate wounds made in each culture. Values are the mean distance cells moved into the denuded area from the edge of 4 different wounds in 2 cultures±SE.
as §1

[5] = tested on: HAE cells; assay: Wound restitution (migration) of scrape-wounded HAE cell monolayers; type: cell-based, human; settings: peptide 8 μg/ml, EGF 50 ng/ml; 24-72 hr
Method: as §2
Confluent monolayer cultures were mechanically wounded by scraping with a razor blade, and the distance that cells migrated from the wound edge was measured using a microscope eyepiece reticle.

[6] = tested on: MDCK cells; assay: Transepithelial electrical resistance (TER) of MDCK cell monolayers; type: cell-based; settings: monochloramine 0.1 mM, 90 min; EGF 50 ng/ml
Method: Monolayer cultures of MDCK cells were grown on permeable polycarbonate filters (0.4-μm pore size) (Transell) in DMEM containing FBS (2%) without (control) or with peptide 77-97 (8 μg/ml) for 8 days. TER was measured 24 hr after the cells were plated, and at specified times thereafter using an epithelial volt-ohm meter (EVOM, Millipore). Following each measurement, medium containing FBS without or with peptide was changed (0, 48, and 144 hr), and additional peptide 77-97 (8 μg/ml) was added at 30 and 72 hr. At 72 hr, TER in cultures that received peptide 77-97 was twice as high as in control cultures. Values are means for 3 cultures; variance is <10% of the mean. TER was measured from 3 different areas on the filter.
(§3) Panel A: When a stable TER was reached (330 Ω·cm^2) in MDCK cell monolayers the medium was changed to DMEM containing FBS (0.2%), and either peptide 77-97 (8 μg/ml) or EGF (50 ng/ml). After 18 hr, peptide 77-97 or EGF were added to the specified wells. One hour later monochloramine (0.1 mM), like the other agents, was added to the apical and basal compartments of the Transwell. […] Panels B, C: Caco2/bbe (C2) subclone monolayers were grown on collagen-coated polycarbonate filters until a stable TER was reached (225 Ω·cm^2). Spent medium was replaced with fresh medium containing FBS (0.1%) alone or with peptide 77-97 (8 μg/ml). After 18 hr, monochloramine (0.3 mM, B) or indomethacin (0.1 mM, C) was added to both compartments of the Transwell. At time 0, cultures received either vehicle (control), vehicle plus oxidant or indomethacin, or peptide 77-97 and oxidant or indomethacin. TER of injured cultures treated with vehicle decreased by ˜35% at 90 min, whereas peptide-treated cultures declined ˜10%.

[7] = tested on: occludin, ZO-1, ZO-2, claudin-5, E-cadherin, JAM; assay: Accumulation of tight and adherens junction proteins in C2 cells (immunoblot of insoluble fraction, confocal microscopy); type: cell-based, human; settings: 8 hr
Method: To find out how the peptide exerts its cytoprotective effect, C2 cell monolayers were treated with AMP peptide, and oxidant injury was induced with monochloramine 18 hours later. Changes in the levels of specific tight junction (TJ) proteins were checked. Cells were lysed, and proteins of the insoluble/particulate fraction were studied by immunoblotting. […] This observation represents the first evidence that AMP peptide enhances accumulation of specific TJ proteins in colonic epithelial cells. […] To carry out this experiment, C2 cells were exposed to AMP peptide for different periods of time, the NP-40-insoluble fraction was obtained, Western blots were prepared, and the amount of each immunoreactive protein was quantified. A 65% increase in immunoreactivity of each protein compared to control was detected for occludin after 2 hr, and for ZO-1 at 8 hr. Hsc73, which is constitutively expressed in these cells, was not altered by exposure to AMP peptide for up to 18 hr.
Confluent monolayers of C2 cells were treated with AMP peptide or vehicle for 8 hr. Cells were then collected, proteins in the NP-40-insoluble fraction were separated by SDS-PAGE, immunoblots were prepared, and the relative amounts of immunoreactive proteins were compared by densitometric analysis. […] These changes appear relatively specific for occludin, ZO-1, ZO-2, claudin-5, E-cadherin, and JAM because they were not observed for several other proteins localized in the TJ (claudin-1, claudin-2), adherens junction (β-catenin), plasma membrane (Na-K-2Cl cotransporter, α or β subunit of Na-K-ATPase), or cytosol (Rho A, hsc73).
To better understand the mechanism(s) by which AMP peptide enhances accumulation of TJ-associated proteins, experiments were performed to determine whether the peptide exerted its effect at the apical or basolateral surface of C2 cells. Monolayers of C2 cells were grown on Transwell filters, AMP peptide (8:g/ml) was added to the apical or basolateral compartment of the Transwell, and cells were harvested 8 hr later. The NP-40-insoluble fraction was obtained, its proteins separated, and immunoblots were prepared.

[8] = tested on: NCI N-87 cells; assay: Growth of NCI N-87 gastric carcinoma cells; type: cell-based; settings: concentration-dependent
Method: as §1

[9] = tested on: SK-GT5 cells; assay: Growth of SK-GT5 gastroesophageal adenocarcinoma cells; type: cell-based; settings: concentration-dependent
Method: as §1

[10] = tested on: Caco2/bbe (C2) cells; assay: Transepithelial electrical resistance (TER) of Caco2/bbe (C2) cell monolayers after injury; type: cell-based, human; settings: monochloramine 0.3 mM, 45 min; rhAMP-18 100 nanomolar or peptide 3.7 micromolar pre-treatment; oxidant alone ~35%
Method: as §3
C2 cell monolayers were grown in DMEM containing FBS (5%) and transferrin (10 μg/ml) on collagen-coated polycarbonate filters until a stable TER was reached (225 Ωcm^2). At time 0, cells were exposed to no DSS (control), or DSS (4%) in the upper compartment of the Transwell. AMP peptide 77-97 (8 μg/ml) was added to the upper and lower compartments of the Transwell 1 day prior to the addition of DSS at time 0. TER of DSS-injured cultures treated with vehicle decreased by ˜70% at 45 min, whereas peptide-treated cultures declined ˜10% at that time. […] Values are means for ≧6 cultures.
Confluent C2 cell monolayers were prepared on Transwells until a stable TER was established. Medium was replaced with fresh medium containing FBS (0.1%) alone (control), or with either rhAMP-18 (100 nanomolar) or peptide 77-97 (3.7 micromolar). After 18 hr, monochloramine (0.3 mM) was added to both compartments of the Transwell, and cultures received either vehicle (control), vehicle plus oxidant, rhAMP-18 and oxidant, or peptide 77-97 and oxidant, after which TER was measured.
To determine whether AMP peptide could speed recovery of TER after DSS-induced colonic cell injury, a highly sought-after functional characteristic of an agent designed to treat IBD, C2 cell monolayers were exposed to DSS (5%) for 10 min which reduced TER to 33±6% of the control value (FIG. 29, left panel). DSS was removed by aspirating the medium and replacing it with fresh medium. AMP peptide 77-97 (8 μg/ml) or vehicle was added to the culture medium, and TER was measured 18 hr later. In the presence of the vehicle, TER increased from 33% to 66±7% of the control value, whereas cells exposed to AMP peptide reached a value 112±4% of control.
To determine if the cytoprotective effect of AMP peptide is mediated at the level of the actin cytoskeleton, C2 cell monolayers were exposed to cytochalasin D, an agent known to disrupt actin filaments and compromise barrier function (Madara et al., 1986).
To determine if AMP peptide could play a cytoprotective role in GDS, a study was carried out in C2 cell monolayers that were exposed to the PA-I lectin. […] Next the effect of AMP peptide was studied in the mouse model of P. aeruginosa-induced-GDS (Laughlin et al., 2000) using female Balb/c mice subjected to 30% hepatectomy, injection of a solution of living P. aeruginosa into the cecum, and food deprivation postoperatively. All 8 of the mice survived surgery.

[11] = tested on: stomach and intestinal epithelial cells; assay: Concentrations at which gastric peptide mediators exert their effects in culture; type: cell-based

Row | Molecule | increase in cell number ([1]; 3 days, peptide 58-99 8 μg/ml, EGF 50 ng/ml, vehicle 290%) [%] | growth stimulation of AGS cells (in words) [2] | growth stimulation of IEC-6 cells (in words) [3] | proliferation of HAE cells (in words) [4] | migration from the wound edge compared with vehicle [5] | loss of TER after oxidant exposure [6] | accumulation of occludin and ZO-1 (specificity) ([7]; peptides 8 μg/ml, EGF 50 ng/ml) | growth of NCI N-87 cells [8] | growth of SK-GT5 cells [9] | concentration of maximal mitogenic effect ([1]; FIG. 18) [nM] | growth stimulation of IEC-18 cells (in words) ([1]; added alone, peptides up to 8 μg/ml) | EC50 ([1]; confluent IEC-18 cultures, FIG. 13) [nM] | EC50 ([1]; recently purified rhAMP-18, FIG. 18) [nM] | decline in TER after monochloramine [10] [%] | immunoreactive ZO-1 and occludin versus vehicle-treated cells ([7]; 100 nanomolar, laser densitometry) | concentrations at which physiological effects can occur [11] [nM]
1 | EGF: polypeptide mitogen used for comparison at 50 ng/ml [reference compound] | 402 | stimulated growth; also recorded: mitogenic | stimulated | stimulated proliferation | stimulated cell movement | 35-40% | not replicated | stimulated | stimulated | – | – | – | – | – | – | –
2 | rhAMP-18: recombinant human AMP-18 with N-terminal His6-tag replacing the signal peptide, expressed in E. coli (SEQ ID NO: 27) (protein, N-terminal His6 tag) MRGSHHHHHHGSNYNIDVNDDNNNAGSGQQSVSVNNEHNVANVDNNNGWDSWNSIWDYGNGFAATRLFQKKTCIVHKMKKEVMPSIQSLDALVKEKKLQGKGPGGPPPKGLMYSVNPNKVDDLSKFGKNIANMCRGIPTYMAEEMQEASLFFYSGTCYTTSVLWIVDISFCGDTVEN | – | – | – | – | – | – | – | – | – | 5 | stimulates cell proliferation to the same maximal extent | ~30 | ~5 | ~10 | about two-fold | < 50
